Consider 4 molecules from ChEMBL document CHEMBL1201862, “PubChem BioAssay data set” (2004).

As a reminder, the AC50 is the midpoint of the concentration-response curve, whichever way the signal moves. As usually defined, the Ki is the equilibrium dissociation constant of an inhibitor or competing ligand from its target. Usually IC50 stands for the concentration needed to halve the response being measured.

One assay has as its target T1, Cytochrome P450 1A2 (Homo sapiens, UniProt P05177).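 Also: PubChem cytochrome P450 panel assay, CYP1A2 panel member.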
T1 sequence (P05177 whole entry): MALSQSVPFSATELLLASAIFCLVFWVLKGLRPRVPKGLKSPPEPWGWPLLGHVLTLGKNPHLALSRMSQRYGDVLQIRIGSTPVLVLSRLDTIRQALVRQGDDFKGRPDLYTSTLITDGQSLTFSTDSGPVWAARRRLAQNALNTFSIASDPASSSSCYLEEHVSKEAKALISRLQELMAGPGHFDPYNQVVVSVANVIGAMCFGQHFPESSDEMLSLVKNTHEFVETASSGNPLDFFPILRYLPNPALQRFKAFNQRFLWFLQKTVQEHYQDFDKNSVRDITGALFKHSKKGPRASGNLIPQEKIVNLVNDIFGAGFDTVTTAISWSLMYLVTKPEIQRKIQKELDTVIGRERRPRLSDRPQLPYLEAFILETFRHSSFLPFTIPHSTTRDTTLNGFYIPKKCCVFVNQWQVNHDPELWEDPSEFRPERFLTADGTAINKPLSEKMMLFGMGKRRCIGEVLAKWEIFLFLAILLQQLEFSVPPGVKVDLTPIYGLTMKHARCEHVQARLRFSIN

Assay [1] addresses Serine/threonine-protein kinase PAK 4 (Homo sapiens, UniProt O96013). In kind it is functional.
Assay [2] concerns the target Dual specificity protein kinase CLK2 (Homo sapiens, UniProt P49760). The assay is classed as functional.
The target of assay [3] is Glycogen synthase kinase-3 alpha (Homo sapiens, UniProt P49840). In kind it is functional.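 Also: GSK3A result taken from a broad kinome-wide kinase panel.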
Assay [4] concerns the target Cyclin-dependent kinase 9 (Homo sapiens, UniProt P50750). The assay is classed as functional.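 Also: value from the CDK9 entry of a kinome-spanning kinase panel.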
The target of assay [5] is Platelet-derived growth factor receptor beta (Homo sapiens, UniProt P09619). In kind it is functional.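 Also: value comes from a kinome panel, with PDGFRB tested as one panel member.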
Assay [6] has as its target 5'-AMP-activated protein kinase catalytic subunit alpha-1 (Homo sapiens, UniProt Q13131). In kind it is functional.
The target in assay [7] is Macrophage colony-stimulating factor 1 receptor (Homo sapiens, UniProt P07333). The assay is classed as functional.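 Also: value comes from the Navigating the Kinome screening panel, CSF1R member.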
Assay [8] deals with Platelet-derived growth factor receptor alpha (Homo sapiens, UniProt P16234). The experiment in a line: Navigating the Kinome. Panel member name: PDGFRA. In kind it is functional.
Assay [9] deals with Receptor-type tyrosine-protein kinase FLT3 (Homo sapiens, UniProt P36888). In kind it is functional.
For assay [10], the target named is Tyrosine-protein kinase ABL1 (Homo sapiens, UniProt P00519). The assay is classed as functional.
Assay [11] has as its target Leukocyte tyrosine kinase receptor (Homo sapiens, UniProt P29376). The experiment in a line: Navigating the Kinome. Panel member name: LTK. The assay is classed as functional.
Assay [12] has as its target Serine/threonine-protein kinase D3 (Homo sapiens, UniProt O94806). In kind it is functional.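 Also: determined within a kinase panel screen, with PRKCN as the panel member.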
For assay [13], the target named is Mitogen-activated protein kinase kinase kinase kinase 2 (Homo sapiens, UniProt Q12851). In kind it is functional.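 Also: measured as one member of a kinome-wide kinase panel, with MAP4K2 as the panel entry.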
For assay [14], the target named is Inhibitor of nuclear factor kappa-B kinase subunit epsilon (Homo sapiens, UniProt Q14164). The experiment in a line: Navigating the Kinome. Panel member name: IKBKE. In kind it is functional.
Assay [15] concerns the target Tyrosine-protein kinase FRK (Homo sapiens, UniProt P42685). In kind it is functional.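 Also: FRK tested as one member of a kinome panel.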
Assay [16] concerns the target Vascular endothelial growth factor receptor 3 (Homo sapiens, UniProt P35916). The assay is classed as functional.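 Also: value from a kinome-wide profiling panel, with FLT4 as the panel member.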
For assay [17], the target named is T2, Interleukin-1 receptor-associated kinase 4 (Homo sapiens, UniProt Q9NWZ3).
T2 sequence (Q9NWZ3 whole entry): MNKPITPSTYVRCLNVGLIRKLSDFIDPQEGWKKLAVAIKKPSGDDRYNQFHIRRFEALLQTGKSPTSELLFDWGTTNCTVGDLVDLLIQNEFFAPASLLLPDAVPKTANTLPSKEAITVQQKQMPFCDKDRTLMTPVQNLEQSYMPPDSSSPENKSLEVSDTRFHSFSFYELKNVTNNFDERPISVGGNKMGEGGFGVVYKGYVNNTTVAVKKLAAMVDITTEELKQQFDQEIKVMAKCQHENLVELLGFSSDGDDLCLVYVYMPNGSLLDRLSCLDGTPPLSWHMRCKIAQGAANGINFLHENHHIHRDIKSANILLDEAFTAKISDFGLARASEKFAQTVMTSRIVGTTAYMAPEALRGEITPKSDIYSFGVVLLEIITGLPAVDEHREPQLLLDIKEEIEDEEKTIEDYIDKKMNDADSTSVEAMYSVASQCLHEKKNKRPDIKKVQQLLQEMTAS
In kind it is functional.

The target of assay [18] is Tyrosine-protein kinase SYK (Homo sapiens, UniProt P43405). The assay is classed as functional.
Assay [19] has as its target Tyrosine-protein kinase Blk (Homo sapiens, UniProt P51451). The assay is classed as functional.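 Also: obtained as one member of a kinome-wide kinase assay panel.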
A short description of assay [20]: Luminescence-based dose response cell-based high throughput screening assay for cytotoxic compounds using the IEC-6 intestinal epithelial cell line. [Related pubchem assays: 1858 (Summary AID.), 1825 (Counterscreen.), 1907 (Confirmation screen.)]. In kind it is functional. For orientation: The purpose of a counterscreen is to sort out artefacts and off-target activity.

A further assay has as its target Phospholipase A2 (Homo sapiens, UniProt P04054). In kind it is functional.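 Also: confirmatory dose-response counterscreen on phospholipase A2, testing hits that came from an ultra-high-throughput screen for ATG4B inhibitors.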
A short description of assay [21]: control 3'UTR Renilla luciferase suppression, dose response, counter-screen for Shn3 inhibitor project, cell-based, Clone20-Shn3RL, cherry-picked (AID 624133). In kind it is functional.
Assay [22] is described as follows: Shn3 3'UTR reporter inhibitors, dose response, cell-based, Clone20 osteoblasts, firefly luciferase, cherry-picked (AID 624132).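 Also: firefly luciferase luminescence from reporter carrying the Shn3 3'UTR in osteoblasts.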 The assay is classed as functional.
A further assay concerns the target T3, Cysteine protease ATG4B (Homo sapiens, UniProt Q9Y4P1).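 Also: Fluorescence-based dose-response confirmation assay measuring inhibition of ATG4B activity.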
T3 sequence (Q9Y4P1 whole entry): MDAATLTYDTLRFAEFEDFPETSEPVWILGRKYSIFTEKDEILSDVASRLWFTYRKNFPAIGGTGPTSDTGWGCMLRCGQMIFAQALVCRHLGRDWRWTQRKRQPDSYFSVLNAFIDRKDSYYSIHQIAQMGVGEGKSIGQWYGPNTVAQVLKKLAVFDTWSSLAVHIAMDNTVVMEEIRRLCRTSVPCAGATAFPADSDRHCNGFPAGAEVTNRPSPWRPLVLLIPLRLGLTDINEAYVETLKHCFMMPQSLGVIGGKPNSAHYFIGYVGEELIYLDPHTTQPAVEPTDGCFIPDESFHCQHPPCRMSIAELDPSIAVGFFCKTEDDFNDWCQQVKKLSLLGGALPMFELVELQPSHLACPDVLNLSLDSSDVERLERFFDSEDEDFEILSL
In kind it is functional.

Structures are written as SMILES. Active and inactive are the calls of the source.

Chain of Dual specificity protein kinase CLK2 (P49760 whole entry): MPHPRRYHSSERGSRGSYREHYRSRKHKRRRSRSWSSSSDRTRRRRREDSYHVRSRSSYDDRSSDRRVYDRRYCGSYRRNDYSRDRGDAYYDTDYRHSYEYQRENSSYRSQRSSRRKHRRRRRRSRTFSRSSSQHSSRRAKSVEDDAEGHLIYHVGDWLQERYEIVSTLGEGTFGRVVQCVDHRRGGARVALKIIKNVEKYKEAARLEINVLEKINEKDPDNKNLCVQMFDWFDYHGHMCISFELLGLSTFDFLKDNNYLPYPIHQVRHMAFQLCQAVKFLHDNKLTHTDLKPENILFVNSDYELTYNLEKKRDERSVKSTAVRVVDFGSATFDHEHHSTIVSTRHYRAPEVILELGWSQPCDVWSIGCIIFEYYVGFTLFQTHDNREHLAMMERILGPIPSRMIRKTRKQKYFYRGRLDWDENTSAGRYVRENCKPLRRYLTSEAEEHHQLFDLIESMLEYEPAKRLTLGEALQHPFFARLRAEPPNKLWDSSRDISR
Chain of 5'-AMP-activated protein kinase catalytic subunit alpha-1 (Q13131 whole entry): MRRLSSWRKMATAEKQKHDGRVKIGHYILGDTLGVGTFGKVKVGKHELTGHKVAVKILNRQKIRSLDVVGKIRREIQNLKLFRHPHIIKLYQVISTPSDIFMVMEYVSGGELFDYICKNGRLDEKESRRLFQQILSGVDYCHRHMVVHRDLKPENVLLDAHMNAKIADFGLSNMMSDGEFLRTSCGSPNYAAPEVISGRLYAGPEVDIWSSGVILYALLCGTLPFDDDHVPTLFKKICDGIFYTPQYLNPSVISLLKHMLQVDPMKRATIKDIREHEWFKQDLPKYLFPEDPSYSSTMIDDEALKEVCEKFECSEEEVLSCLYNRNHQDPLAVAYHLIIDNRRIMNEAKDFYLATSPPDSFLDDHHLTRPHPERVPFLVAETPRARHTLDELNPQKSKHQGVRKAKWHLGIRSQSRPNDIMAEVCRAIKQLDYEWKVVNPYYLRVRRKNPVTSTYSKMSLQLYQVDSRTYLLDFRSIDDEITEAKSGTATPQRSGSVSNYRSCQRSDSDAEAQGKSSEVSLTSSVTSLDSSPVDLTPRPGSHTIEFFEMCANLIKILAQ
Chain of Platelet-derived growth factor receptor beta (P09619 whole entry): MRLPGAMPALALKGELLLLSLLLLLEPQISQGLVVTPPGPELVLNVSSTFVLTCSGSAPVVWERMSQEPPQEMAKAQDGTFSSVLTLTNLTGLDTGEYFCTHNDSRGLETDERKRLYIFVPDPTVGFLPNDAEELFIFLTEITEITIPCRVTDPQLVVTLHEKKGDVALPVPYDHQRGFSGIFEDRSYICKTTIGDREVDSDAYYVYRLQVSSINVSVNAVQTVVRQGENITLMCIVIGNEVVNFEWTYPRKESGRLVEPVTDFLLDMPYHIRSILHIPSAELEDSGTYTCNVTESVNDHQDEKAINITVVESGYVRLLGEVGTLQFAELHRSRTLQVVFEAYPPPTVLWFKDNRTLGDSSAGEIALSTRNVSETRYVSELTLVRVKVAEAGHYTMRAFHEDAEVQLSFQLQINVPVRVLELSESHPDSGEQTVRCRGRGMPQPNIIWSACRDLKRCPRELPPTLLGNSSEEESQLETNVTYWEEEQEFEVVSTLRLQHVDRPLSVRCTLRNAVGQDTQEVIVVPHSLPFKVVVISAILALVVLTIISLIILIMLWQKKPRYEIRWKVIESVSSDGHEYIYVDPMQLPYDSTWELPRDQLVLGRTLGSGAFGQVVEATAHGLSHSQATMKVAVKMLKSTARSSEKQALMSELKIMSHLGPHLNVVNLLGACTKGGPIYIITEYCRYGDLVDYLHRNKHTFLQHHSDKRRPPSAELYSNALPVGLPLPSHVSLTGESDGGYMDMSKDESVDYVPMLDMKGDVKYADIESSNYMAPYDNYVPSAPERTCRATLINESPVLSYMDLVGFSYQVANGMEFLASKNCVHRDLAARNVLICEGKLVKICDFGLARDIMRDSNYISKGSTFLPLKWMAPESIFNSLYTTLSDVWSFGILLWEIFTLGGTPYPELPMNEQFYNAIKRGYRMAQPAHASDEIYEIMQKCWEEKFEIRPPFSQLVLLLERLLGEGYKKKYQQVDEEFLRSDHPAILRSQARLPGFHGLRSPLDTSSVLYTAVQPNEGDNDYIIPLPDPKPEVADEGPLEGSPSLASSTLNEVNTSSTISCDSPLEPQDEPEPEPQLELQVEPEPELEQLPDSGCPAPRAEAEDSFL
Chain of Macrophage colony-stimulating factor 1 receptor (P07333 whole entry): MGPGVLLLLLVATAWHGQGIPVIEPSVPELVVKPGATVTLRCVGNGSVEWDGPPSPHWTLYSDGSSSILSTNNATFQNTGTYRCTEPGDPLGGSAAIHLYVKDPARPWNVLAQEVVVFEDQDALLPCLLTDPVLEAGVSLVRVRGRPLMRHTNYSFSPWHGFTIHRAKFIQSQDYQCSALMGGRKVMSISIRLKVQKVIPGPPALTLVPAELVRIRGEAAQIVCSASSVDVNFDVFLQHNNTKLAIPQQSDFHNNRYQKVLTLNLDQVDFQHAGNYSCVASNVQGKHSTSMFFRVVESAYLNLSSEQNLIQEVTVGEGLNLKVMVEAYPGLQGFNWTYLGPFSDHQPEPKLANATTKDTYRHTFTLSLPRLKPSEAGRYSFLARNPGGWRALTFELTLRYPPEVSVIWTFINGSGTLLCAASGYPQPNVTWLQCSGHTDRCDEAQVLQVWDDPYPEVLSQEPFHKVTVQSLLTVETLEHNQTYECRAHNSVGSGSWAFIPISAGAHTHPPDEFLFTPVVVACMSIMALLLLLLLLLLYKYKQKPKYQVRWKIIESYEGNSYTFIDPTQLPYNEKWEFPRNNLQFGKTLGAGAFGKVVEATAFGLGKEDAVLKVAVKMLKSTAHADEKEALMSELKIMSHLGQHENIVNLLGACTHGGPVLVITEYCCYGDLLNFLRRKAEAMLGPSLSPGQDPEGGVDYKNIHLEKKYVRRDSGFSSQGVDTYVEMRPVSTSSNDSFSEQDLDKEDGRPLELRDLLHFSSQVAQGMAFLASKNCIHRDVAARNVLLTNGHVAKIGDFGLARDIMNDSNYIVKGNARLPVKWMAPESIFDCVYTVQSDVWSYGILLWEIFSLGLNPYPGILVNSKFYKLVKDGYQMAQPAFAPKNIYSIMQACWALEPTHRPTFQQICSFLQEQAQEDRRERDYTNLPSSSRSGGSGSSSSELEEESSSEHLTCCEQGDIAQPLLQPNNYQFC
Chain of Platelet-derived growth factor receptor alpha (P16234 whole entry): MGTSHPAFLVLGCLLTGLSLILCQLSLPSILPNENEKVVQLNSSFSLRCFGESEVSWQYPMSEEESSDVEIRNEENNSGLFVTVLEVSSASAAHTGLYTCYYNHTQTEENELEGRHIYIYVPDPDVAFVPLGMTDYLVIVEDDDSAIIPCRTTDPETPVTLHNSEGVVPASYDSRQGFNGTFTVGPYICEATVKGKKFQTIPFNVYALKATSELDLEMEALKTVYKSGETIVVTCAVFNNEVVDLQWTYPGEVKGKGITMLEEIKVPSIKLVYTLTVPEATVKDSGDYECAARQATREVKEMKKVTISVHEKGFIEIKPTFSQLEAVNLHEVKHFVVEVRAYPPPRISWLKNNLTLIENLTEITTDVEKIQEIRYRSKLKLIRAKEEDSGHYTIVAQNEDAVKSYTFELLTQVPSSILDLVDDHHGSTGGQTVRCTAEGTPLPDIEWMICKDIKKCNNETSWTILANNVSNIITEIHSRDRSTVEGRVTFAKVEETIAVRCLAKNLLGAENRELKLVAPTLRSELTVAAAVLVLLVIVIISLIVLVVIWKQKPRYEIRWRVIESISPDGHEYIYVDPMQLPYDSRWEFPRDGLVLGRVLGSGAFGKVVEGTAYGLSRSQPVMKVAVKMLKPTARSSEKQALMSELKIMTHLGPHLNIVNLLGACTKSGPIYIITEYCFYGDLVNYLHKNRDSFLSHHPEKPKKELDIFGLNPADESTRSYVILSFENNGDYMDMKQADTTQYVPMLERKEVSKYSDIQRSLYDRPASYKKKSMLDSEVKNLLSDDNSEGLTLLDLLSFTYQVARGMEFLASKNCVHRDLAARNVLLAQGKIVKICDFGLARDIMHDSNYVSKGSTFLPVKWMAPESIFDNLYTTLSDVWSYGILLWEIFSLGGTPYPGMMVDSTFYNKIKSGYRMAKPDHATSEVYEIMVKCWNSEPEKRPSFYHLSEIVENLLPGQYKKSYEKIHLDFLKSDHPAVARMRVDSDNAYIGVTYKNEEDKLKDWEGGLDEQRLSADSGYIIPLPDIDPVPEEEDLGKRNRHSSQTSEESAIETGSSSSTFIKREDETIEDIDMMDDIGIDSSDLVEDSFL
Chain of Glycogen synthase kinase-3 alpha (P49840 whole entry): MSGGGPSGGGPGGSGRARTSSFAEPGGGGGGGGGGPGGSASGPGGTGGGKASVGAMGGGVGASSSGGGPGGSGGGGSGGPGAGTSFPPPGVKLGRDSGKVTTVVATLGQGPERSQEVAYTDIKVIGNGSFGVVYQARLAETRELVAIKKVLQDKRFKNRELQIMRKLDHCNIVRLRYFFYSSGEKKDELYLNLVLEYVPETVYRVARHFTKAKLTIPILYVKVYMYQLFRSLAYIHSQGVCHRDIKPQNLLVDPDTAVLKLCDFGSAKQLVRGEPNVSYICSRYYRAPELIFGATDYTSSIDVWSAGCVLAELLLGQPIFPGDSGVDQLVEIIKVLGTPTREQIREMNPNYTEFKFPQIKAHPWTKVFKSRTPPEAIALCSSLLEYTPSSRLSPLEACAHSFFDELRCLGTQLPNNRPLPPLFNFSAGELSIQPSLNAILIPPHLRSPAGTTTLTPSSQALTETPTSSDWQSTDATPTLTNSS
Chain of Phospholipase A2 (P04054 whole entry): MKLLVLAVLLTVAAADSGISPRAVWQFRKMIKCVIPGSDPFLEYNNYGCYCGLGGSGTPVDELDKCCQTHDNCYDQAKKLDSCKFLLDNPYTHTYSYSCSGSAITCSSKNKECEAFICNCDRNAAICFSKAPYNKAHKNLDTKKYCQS

Take `CC(C)c1ccc(-c2nnn(CCC(=O)O)n2)cc1`: on Cytochrome P450 1A2, the half-maximal activity concentration (AC50) is 12.6 µM (inconclusive).
Regarding `O=c1[nH][nH]c2ccc(Br)cc12`, the Ki in assay [1] was 50.1 µM (active); in [2], 15.8 µM (active); in assay [3], 39.8 µM (active); in assay [4], 5.01 µM (active); in assay [5], 63.1 µM (active); in [6], 12.6 µM (active). For the same molecule, the Ki in [7] is 39.8 µM (active); in assay [8], 15.8 µM (active); in assay [9] it was 79.4 µM (active); in assay [10], 39.8 µM (active); in [11] it was 5.01 µM (active); in assay [12], 3.16 µM (active). For the same molecule, the results for the Ki in assay [13] and in [14] were 31.6 µM (active) and 7.94 µM (active), respectively.
Regarding `COc1cc2c(cc1Nc1nc(Nc3cccc(F)c3C(N)=O)c3cc[nH]c3n1)N(C(=O)CN(C)C)CC2`, the Ki in assay [1] is > 5.01 µM (inactive); in assay [2] it was 0.0316 µM (active); in assay [3], > 3.98 µM (inactive); in assay [4], > 1.58 µM (inactive); in [5] it was > 2 µM (inactive); in [6], > 3.16 µM (inactive). Besides, the Ki in assay [7] was > 2.51 µM (inactive); in [8], > 2.51 µM (inactive); in assay [9] it was > 2.51 µM (inactive); in assay [15], > 2.51 µM (inactive); in assay [16], > 6.31 µM (inactive); in assay [10], > 2.51 µM (inactive). For the same molecule, the Ki in assay [17] is 10 µM (active); in assay [11], 0.00158 µM (active); in assay [12], 0.398 µM (active); in assay [13], > 2.51 µM (inactive); in assay [18], > 1.58 µM (inactive); in assay [14] it was > 3.16 µM (inactive). The Ki in assay [19] is > 1.58 µM (inactive).
Regarding `CCn1nc(/C=C/c2ccccc2)nc2c(=O)n(C)c(=O)nc1-2`, the half-maximal inhibitory concentration (IC50) is 0.335 µM (active) in assay [20], > 80 µM (inactive) at Phospholipase A2 and 0.653 µM (active) on Cysteine protease ATG4B. Further, the AC50 was 5.79 µM (active) in assay [21] and 2.57 µM (active) in [22].
